{"source": "patent US20150011508A1", "about": "“COMPOUNDS AND COMPOSITIONS AS C-KIT KINASE INHIBITORS” (priority 2011, published 2015)", "data": [{"molecular_target": "T1, c-kit (Homo sapiens, UniProt P10721)", "T1 construct": "human Mo7e cells which endogenously express c-kit; endogenous in cells; host or cells: human Mo7e cells (SCF-dependent promegakaryocytic leukemia line)", "T1 sequence (P10721 26-976)": "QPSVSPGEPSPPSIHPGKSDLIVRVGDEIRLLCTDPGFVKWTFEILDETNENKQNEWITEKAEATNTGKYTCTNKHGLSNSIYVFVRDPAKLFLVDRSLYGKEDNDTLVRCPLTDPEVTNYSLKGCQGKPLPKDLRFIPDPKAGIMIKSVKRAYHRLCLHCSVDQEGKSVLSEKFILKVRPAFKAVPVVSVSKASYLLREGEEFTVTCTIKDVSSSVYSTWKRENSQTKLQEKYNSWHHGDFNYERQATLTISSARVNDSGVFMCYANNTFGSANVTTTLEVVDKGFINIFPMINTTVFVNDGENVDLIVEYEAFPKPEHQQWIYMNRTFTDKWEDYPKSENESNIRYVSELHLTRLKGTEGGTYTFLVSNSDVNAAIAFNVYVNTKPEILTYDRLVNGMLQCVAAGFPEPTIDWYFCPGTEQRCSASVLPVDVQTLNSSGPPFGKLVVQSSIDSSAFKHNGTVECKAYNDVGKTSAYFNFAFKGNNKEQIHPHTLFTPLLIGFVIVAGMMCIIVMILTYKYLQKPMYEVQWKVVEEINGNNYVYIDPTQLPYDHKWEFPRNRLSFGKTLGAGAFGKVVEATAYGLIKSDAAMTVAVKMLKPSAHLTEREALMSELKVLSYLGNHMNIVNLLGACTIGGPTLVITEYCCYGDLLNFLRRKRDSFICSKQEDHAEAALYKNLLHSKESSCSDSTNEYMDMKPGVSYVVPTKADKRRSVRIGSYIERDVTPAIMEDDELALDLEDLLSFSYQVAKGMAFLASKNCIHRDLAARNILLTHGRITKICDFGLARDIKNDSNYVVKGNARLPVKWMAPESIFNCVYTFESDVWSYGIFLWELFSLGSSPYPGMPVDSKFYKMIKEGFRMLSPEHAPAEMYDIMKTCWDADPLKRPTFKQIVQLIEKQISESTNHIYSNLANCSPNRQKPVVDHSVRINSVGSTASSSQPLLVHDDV", "assay": "Mo7e cell proliferation assay (SCF dependent proliferation)", "type": "cell-based", "conditions": "Table 1; human Mo7e cells stimulated with human recombinant SCF, 48 h, CellTiter Glo; 1% FBS (footnote)", "method": "(§1) Compounds of Formula (I) and Formula (II) provided herein were assayed to measure their capacity to inhibit c-kit and PDGFR kinases using the appropriate assay described below: c-Kit inhibition was evaluated using the Mo7e cell proliferation assay, and PDGFR inhibition was evaluated using the Rat A10 cell proliferation assay and the Human TGHA-VSMC cell proliferation assay.\n(§2) The compounds of Table 1 and Table 2 were tested for inhibition of SCF dependent proliferation using human Mo7e cells which endogenously express c-kit in a 384 well format. […] After 48 hours of incubation at 37° C., cell viability was measured by adding 25 uL of CellTiter Glo (Promega) to the cells and the luminescence was measured by a CLIPR CCD camera (Molecular Devices).\n(§3) The IC50 value is given as that concentration of the test compound in question that provoke a response halfway between the baseline and maximum responses.", "units": {"IC50": "µM"}, "values": [{"compound": "COC(C)(CCc1nc(-c2ccc(C)c(NC(=O)c3cnc4cc(C)ccn34)c2)no1)C(F)(F)F", "note": "(centres unmarked) [F90]", "IC50": 0.048}, {"compound": "Cc1ccc(-c2noc(CCC(=O)OC(C)C)n2)cc1NC(=O)c1cnc2ccccn12", "note": "[F55a, isopropyl 3-(3-(3-(imidazo[1,2-a]pyridine-3-carboxamido)-4-methylphenyl)-1,2,4-oxadiazol-5-yl)propanoate]", "IC50": 0.092}, {"compound": "CCOC(=O)NCc1nc(-c2ccc(C)c(NC(=O)c3cnc4ccccn34)c2)no1", "note": "[F29]", "IC50": 0.08}, {"compound": "CCOCc1nc(-c2ccc(C)c(NC(=O)c3cnc4ccccn34)c2)no1", "note": "[F12]", "IC50": 0.049}, {"compound": "Cc1ccc2ncc(C(=O)Nc3cc(-c4noc(CCC(C)(O)C(F)(F)F)n4)ccc3C)n2c1", "note": "(centres unmarked) [F72]", "IC50": 0.035}, {"compound": "Cc1ccc2ncc(C(=O)Nc3cc(-c4noc(CC[C@@](C)(O)C(F)(F)F)n4)ccc3C)n2c1", "note": "[F87]", "IC50": 0.029}, {"compound": "Cc1ccn2c(C(=O)Nc3cc(-c4noc(NCC(C)C)n4)ccc3C)cnc2c1", "note": "[F69]", "IC50": 0.016}, {"compound": "Cc1nc(-c2ccc(C)c(NC(=O)c3cnc4ccc(-c5scnc5C)cn34)c2)no1", "note": "[F97]", "IC50": 0.038}, {"compound": "Cc1nc(-c2ccc(C)c(NC(=O)c3cnc4ccc(-c5ccnc(N)c5)cn34)c2)no1", "note": "[F103]", "IC50": 0.061}, {"compound": "CC(=O)CCc1nc(-c2ccc(C)c(NC(=O)c3cnc4ccccn34)c2)no1", "note": "[F5]", "IC50": 0.032}, {"compound": "Cc1ccc(-c2noc(CCC(C)(C)O)n2)cc1NC(=O)c1cnc2ccc(F)cn12", "note": "[F36, 6-fluoro-N-(5-(5-(3-hydroxy-3-methylbutyl)-1,2,4-oxadiazol-3-yl)-2-methylphenyl)imidazo[1,2-a]pyridine-3-carboxamide]", "IC50": 0.087}, {"compound": "Cc1ccc(-c2noc(CCC(C)(C)O)n2)cc1NC(=O)c1cnc2cc(-c3cnn(C)c3)ccn12", "note": "[F63]", "IC50": 0.007}, {"compound": "Cc1ccc(-c2noc(CC(=O)OC(C)(C)C)n2)cc1NC(=O)c1cnc2ccccn12", "note": "[F27, tert-butyl 2-(3-(3-(imidazo[1,2-a]pyridine-3-carboxamido)-4-methylphenyl)-1,2,4-oxadiazol-5-yl)acetate]", "IC50": 0.022}, {"compound": "(S)-1,1,1-trifluoro-2-methyl-4-(3-(4-methyl-3-(7-methylimidazo[1,2-a]pyridine-3-carboxamido)phenyl)-1,2,4-oxadiazol-5-yl)butan-2-yl dihydrouen phosphate [F268]", "IC50": 0.026}, {"compound": "Cc1ccc(-c2noc(COCCOC(C)(C)C)n2)cc1NC(=O)c1cnc2ccccn12", "note": "[F34]", "IC50": 0.093}, {"compound": "Cc1ccn2c(C(=O)Nc3cc(-c4noc(CCC(C)(OP(=O)(O)O)C(F)(F)F)n4)ccc3C)cnc2c1", "note": "(stereo in doubt) [F270, (R)-1,1,1-trifluoro-2-methyl-4-(3-(4-methyl-3-(7-methylimidazo[1,2-a]pyridine-3-carboxamido)phenyl)-1,2,4-oxadiazol-5-yl)butan-2-yl dihydrogen phosphate]", "IC50": 0.025}, {"compound": "Cc1ccc2ncc(C(=O)Nc3cc(-c4noc(COCC(F)(F)F)n4)ccc3C)n2c1", "note": "[F79]", "IC50": 0.013}, {"compound": "COP(=O)(OC)OC(C)(CCc1nc(-c2ccc(C)c(NC(=O)c3cnc4cc(C)ccn34)c2)no1)C(F)(F)F", "note": "(single isomer, unassigned) [F269]", "IC50": 0.05}, {"compound": "COP(=O)(OC)OC(C)(CCc1nc(-c2ccc(C)c(NC(=O)c3cnc4cc(C)ccn34)c2)no1)C(F)(F)F", "note": "(single isomer, unassigned) [F267]", "IC50": 0.056}, {"compound": "[2H]c1c([2H])c([2H])n2c(C(=O)Nc3cc(-c4noc(CCC(C)(O)C(F)(F)F)n4)ccc3C)cnc2c1[2H]", "note": "(centres unmarked) [F73]", "IC50": 0.025}, {"compound": "Cc1nc(-c2ccc(C)c(NC(=O)c3cnc4ccc(-c5ccncc5C)cn34)c2)no1", "note": "[F83]", "IC50": 0.048}, {"compound": "Cc1nc(-c2ccc(C)c(NC(=O)c3cnc4ccc(-c5cccn5C)cn34)c2)no1", "note": "[F101]", "IC50": 0.08}, {"compound": "Cc1ccc(-c2noc(CCC(C)(C)O)n2)cc1NC(=O)c1cnc2cc(N3CCOCC3)ccn12", "note": "[F60]", "IC50": 0.058}, {"compound": "Cc1ccc(-c2noc(CNC(=O)C(F)(F)F)n2)cc1NC(=O)c1cnc2ccccn12", "note": "[F24, N-(2-methyl-5-(5-((2,2,2-trifluoroacetamido)methyl)-1,2,4-oxadiazol-3-yl)phenyl)imidazo[1,2-a]pyridine-3-carboxamide]", "IC50": 0.056}]}, {"molecular_target": "T1, c-kit", "assay": "Mo7e cell proliferation assay (SCF dependent proliferation)", "type": "cell-based", "conditions": "Table 2, values marked *: 20% FBS instead of 1% FBS", "method": "as §1, §2, §3", "units": {"IC50": "µM"}, "values": [{"compound": "Cc1ccc(-c2nc(CC(=O)N(C)C)no2)cc1NC(=O)c1cnc2ccccn12", "note": "[F233]", "IC50": "> 6"}]}, {"molecular_target": "T1, c-kit", "assay": "Mo7e cell proliferation assay (SCF dependent proliferation)", "type": "cell-based", "conditions": "Table 2; human Mo7e cells stimulated with human recombinant SCF, 48 h, CellTiter Glo; 1% FBS (footnote)", "method": "as §1, §2, §3", "units": {"IC50": "µM"}, "values": [{"compound": "Cc1ccc(-c2noc(NCC(C)(C)O)n2)cc1NC(=O)c1cnc2cc(F)ccn12", "note": "[F192]", "IC50": 0.313}, {"compound": "Cc1ccc(-c2noc(CCC(C)(C)O)n2)cc1NC(=O)c1cnc2ccc(N3CCOCC3)cn12", "note": "[F194]", "IC50": 0.126}, {"compound": "Cc1ccc(-c2noc(CCC(C)(C)O)n2)cc1NC(=O)c1cnc2cc(N3CCOC3=O)ccn12", "note": "[F191]", "IC50": 0.272}, {"compound": "Cc1ccc(-c2noc(C(C)O)n2)cc1NC(=O)c1cnc2ccccn12", "note": "(centres unmarked) [F198]", "IC50": 0.255}, {"compound": "Cc1cc(-c2ccc3ncc(C(=O)Nc4cc(-c5noc(C)n5)ccc4C)n3c2)n(C)n1", "note": "[F207]", "IC50": 0.223}, {"compound": "Cc1ccc(-c2noc(C(C)(C)NS(C)(=O)=O)n2)cc1NC(=O)c1cnc2ccccn12", "note": "[F147]", "IC50": 0.457}, {"compound": "CC(=O)NCc1nc(-c2ccc(C)c(NC(=O)c3cnc4ccccn34)c2)no1", "note": "[F141]", "IC50": 0.867}, {"compound": "COC(=O)NCc1nc(-c2ccc(C)c(NC(=O)c3cnc4ccccn34)c2)no1", "note": "[F128]", "IC50": 0.113}, {"compound": "CC(=O)N[C@@H](C)c1nc(-c2ccc(C)c(NC(=O)c3cnc4ccccn34)c2)no1", "note": "[F140]", "IC50": 1.34}, {"compound": "Cc1nc(-c2ccc(C)c(NC(=O)c3cnc4ccc(-c5cnccc5C)cn34)c2)no1", "note": "[F202]", "IC50": 0.135}, {"compound": "Cc1nc(-c2ccc(C)c(NC(=O)c3cnc4ccc(C5CC5)cn34)c2)no1", "note": "[F203]", "IC50": 0.144}, {"compound": "Cc1ccc(-c2noc(CCC(N)=O)n2)cc1NC(=O)c1cnc2ccccn12", "note": "[F117, N-(5-(5-(3-amino-3-oxopropyl)-1,2,4-oxadiazol-3-yl)-2-methylphenyl)imidazo[1,2-a]pyridine-3-carboxamide]", "IC50": 0.803}, {"compound": "COC(=O)NC(C)(C)c1nc(-c2ccc(C)c(NC(=O)c3cnc4ccccn34)c2)no1", "note": "[F148]", "IC50": 0.208}, {"compound": "CC(=O)CCc1ccc2ncc(C(=O)Nc3cc(-c4noc(C)n4)ccc3C)n2c1", "note": "[F180]", "IC50": 0.356}, {"compound": "Cc1ccc(-c2noc(CNC(=O)OCCC(F)(F)F)n2)cc1NC(=O)c1cnc2ccccn12", "note": "[F220]", "IC50": 1.19}, {"compound": "COCCOCc1nc(-c2cc(NC(=O)c3cnc4ccccn34)c(C)cc2C)no1", "note": "[F190]", "IC50": 0.119}, {"compound": "Cc1ccc(-c2noc(CCC(C)(C)O)n2)cc1NC(=O)c1cnc2ccccn12", "note": "[F119]", "IC50": 0.112}, {"compound": "Cc1nc(-c2ccc(C)c(NC(=O)c3cnc4ccc(-c5c(C)nn(CC(=O)O)c5C)cn34)c2)no1", "note": "[F235]", "IC50": 2.46}, {"compound": "Cc1ccc(-c2noc([C@@H](C)N)n2)cc1NC(=O)c1cnc2ccccn12", "note": "[F127]", "IC50": 0.196}, {"compound": "Cc1nc(-c2ccc(C)c(NC(=O)c3cnc4ccc(CCN5CCOCC5)cn34)c2)no1", "note": "[F212]", "IC50": 0.691}, {"compound": "Cc1ccc(-c2noc(CCCNC(=O)OC(C)(C)C)n2)cc1NC(=O)c1cnc2ccccn12", "note": "[F111]", "IC50": 0.364}, {"compound": "Cc1ccc(-c2noc(CCC(C)(C)O)n2)cc1NC(=O)c1cnc2ccc(-n3ccnc3)cn12", "note": "[F221]", "IC50": 1.25}, {"compound": "COC(=O)NCc1nc(-c2ccc(C)c(NC(=O)c3cnc4ccc(CCC(=O)O)cn34)c2)no1", "note": "[F230]", "IC50": "> 10"}, {"compound": "COC(=O)NCc1nc(-c2ccc(C)c(NC(=O)c3cnc4cc(C#N)ccn34)c2)no1", "note": "[F158]", "IC50": 0.779}, {"compound": "Cc1ccc(-c2noc(CCS(N)(=O)=O)n2)cc1NC(=O)c1cnc2ccccn12", "note": "[F116]", "IC50": 0.735}]}]}
